The text below walks through data of patent US8986733B2, “Materials and methods for nerve repair” (University of Florida Research Foundation, Inc., priority 2001, dated 2015).

Holding throughout (type): in vivo
In test [1] the test system is rat sciatic nerve. The test can be described thus: Bilateral sciatic nerve transection (neurotmesis) and neurorrhaphic repair, GAP-43 axon scoring. Conditions: for axon regeneration / ingress into the distal segment vs vehicle-treated controls: 4 days after transection and repair. As for the experimental part: (§1) Surgical procedures for nerve transection and nerve crush experiments. All surgical procedures were performed according to Institutional Animal Care and Use Committee (IACUC) approved protocols. Young adult SPRAGUE DAWLEY rats (HARLAN Indianapolis, Ind.) were deeply anesthetized with xylazine (15 mg/kg, i.m.) followed by ketamine-HCl (110 mg/kg, i.p.). Six animals received bilateral nerve crush injuries. Sciatic nerves were exposed and then crushed with firm pressure for thirty seconds with a DUMONT #5 forceps at a site 4 mm distal to the tendon of the internal obdurator. The crush site was marked with an epineurial suture. In a separate set of experiments, eight rats received bilateral sciatic nerve transection injuries using serrated scissors. The proximal and distal stumps were […] by epineurial neurorrhaphy using 9-0 ETHILON sutures. Fibrin glue (fibrinogen and thrombin) was then applied to stabilize the union. In both injury models, the right sciatic nerves were injected 2-mm distal to the injury with chondroitinase ABC (1 U in 2 μl) (high-purity, protease-free; SIGMA CHEMICAL CO., St. Louis, […].). Left sciatic nerves (with the same injury as the right side) were injected with vehicle alone (0.1% bovine serum albumin in PBS). Muscle incisions were sutured and the skin closed with metal clips. After recovery from the anesthetic, animals were returned to standard housing. Two days (for crush injury) and four days (for transection injury) after surgery, nerves were removed under anesthesia and fixed as described below. One of the eight animals receiving nerve transection and repair was excluded because loss of continuity in one nerve occurred during convalescence.
The hypothesis that chondroitinase treatment improves axonal growth through the site of nerve coaptation was tested. Bilateral neurotmesis was achieved by a scissor cut of the sciatic nerves which were then repaired by epineurial suture and fibrin glue. One nerve was injected with chondroitinase ABC and the contralateral nerve received vehicle alone. Because of the latency of regeneration after nerve transection, axonal growth across the coaptation was examined four days after injury. In control nerves, the ingress of axons occurred mainly in patches and was limited to discrete subsections of the distal nerve; otherwise only a few axons were found scattered throughout the remaining nerve cross-section, as shown in FIG. 14A. The number of axons extending farther into the distal (after 4 days) rapidly diminished and approached zero within 3 mm from the coaptation. In contrast, axon ingress into chondroitinase-treated nerves was more robust and widespread throughout the entire nerve cross-section. In 7/7 animals, the number of axons that entered the distal nerve was greater in the chondroitinase-treated nerve than in the control nerve. […] It was clear that axon growth in all portions of the distal nerve was strictly linear and aligned with the longitudinal axis of the nerve.

The subject of test [2] is rat sciatic nerve. Put plainly: Bilateral sciatic nerve crush injury (axonotmesis), GAP-43 axon scoring. Conditions: 2 days after injury; for axonal regeneration after nerve crush injury (GAP-43 immunoreactivity) vs vehicle: 1 U injected. As for the experimental part:
as §1
The hypothesis that chondroitinase treatment improves axonal growth through the site of nerve crush injury was tested. Bilateral axonotmesis was achieved by severely crushing the sciatic nerves while maintaining the continuity of the nerve sheaths. […] Regenerating axons were labeled by GAP-43 immunofluorescence and scored by digital image analysis. […]

For test [3], the system named is rat sciatic nerve. The test can be described thus: Human-to-rat acellular nerve xenograft model, GAP-43 axon scoring. Conditions: 8-day acellular human nerve xenografts in rat. From the text: Human nerve fascicles (of similar diameter to the rat sciatic nerve) were grafted into a gap made in the rat sciatic nerve. Serial sections of the 8-day interpositional nerve xenografts were scored for GAP-43-labeled axonal profiles by digital image analysis. Data represent the means (−SEM) of 2 vehicle-treated and 2 chondroitinase-treated grafts assessed at the specified distances into the graft (proximal to distal).
In the following experiments, the hypothesis that chondroitinase treatment improves nerve regeneration through acellular human nerve grafts in a rat xenograft model was tested. Subunits (individual fascicles) taken from human nerves were treated en bloc with vehicle or chondroitinase ABC. Ten-mm interpositional nerve grafts were joined to the rat host sciatic nerve by epineurial neurorrhaphy reinforced with fibrin glue. Each of 2 host rats received bilateral grafts, one vehicle-treated and one chondroitinase-treated graft. Regeneration was initially examined after 8 days. Axonal growth was assessed at specified spatial intervals within the graft by scoring GAP-43-immunopositive profiles in transverse sections.

Take chondroitinase ABC: the “animals in which number of axons entering distal nerve was greater than in control nerve” value in the test on rat sciatic nerve [1] (4 days after injury) is reported as 7/7. The “increase in axon score immediately distal to coaptation in 3/7 animals” value in the test with rat sciatic nerve [1] (4 days after injury, 3/7 animals) is given as “greater than 3.5 fold”. Moreover, in the test with rat sciatic nerve [1] (4 days after injury, average), the “score of axons immediately distal to the coaptation vs control” value is “two-fold greater”. The “axon regeneration / ingress into the distal segment vs vehicle-treated controls” value with rat sciatic nerve [1] is listed as “significantly greater”; in the test with rat sciatic nerve [1] (listed as chondroitinase), “increased several-fold”. In the test with rat sciatic nerve [2], the “latency or rate of axonal regeneration after crush” value is on record as “no indication that the latency or rate of axonal regeneration was altered”. Further, the “axonal regeneration after nerve crush injury (GAP-43 immunoreactivity) vs vehicle” value in the test on rat sciatic nerve [2] was “no significant difference”; with rat sciatic nerve [2] (listed as chondroitinase), “not significantly effected”. In addition, the “average number of axons (GAP-43-immunopositive profiles) entering grafts vs control grafts” value with rat sciatic nerve [3] is given as “more than three-fold greater”.
